Experimental data published in patent US12239650B2, “Compounds for treating and preventing net associated complications” (The Australian National University, priority 2019, dated 2025).
Like-named read-outs stand apart in the source and are kept apart here.

Legend:
histones = experiment: In-vivo histone toxicity assay; conditions: mice; for Protection from histone-induced liver damage, generalised tissue injury and kidney failure (circulating ALT, LDH, creatinine): compound i.p. 10 min prior to i.v. histones 50 mg kg^−1, blood 4 h post-histones, concentration-dependent
Method: In-vivo histone toxicity assays. BALB/c female mice (5-6 weeks of age), that are more prone to histone-induced anemia and easier to inject i.v. at this young age than C57BL/6 mice, were injected i.p. with test compounds at concentrations indicated 10 min prior to i.v. injection of histones (50 mg kg^−1) in phosphate buffered saline. Retro-orbital bleeds were performed with glass Pasteur pipettes 10 min after histone injection and collected blood added to acid citrate dextrose (ACD), the 10 min blood sample being subjected to hematologic analyses for platelet and erythrocyte content using an ADVIA 2120i Hematology Analyzer. Spleens were also harvested at 10 min post-histone injection and splenic hemoglobin content quantified using a hemoglobin assay kit (Sigma-Aldrich). In the case of 4 h blood samples, male C57/BL/6 mice (6-8 weeks of age) were injected with test compounds and histones as above and plasma isolated and stored frozen for subsequent biochemical testing, with markers for liver (alanine aminotransferase, ALT), kidney (creatinine, Crea) and general tissue (lactate dehydrogenase, LDH) damage being determined by the Department of Pathology, The Canberra Hospital.

[1] = test system: histone-induced platelet aggregation; experiment: Histone-induced aggregation of isolated platelets; assay type: cell-based, human; conditions: histones 150 μg/mL, isolated platelets, FIG. 4b
Method: In vitro platelet aggregation and degranulation assays. For aggregation studies platelets were isolated from human whole blood collected into Na-citrate vacutainers through 2-step centrifugation at room temperature (200×g for 20 min then the platelet-rich plasma 800×g for 15 min), the platelet pellet resuspended in Hank's balanced salt solution containing calcium and magnesium and histones added and incubated in the presence/absence of compounds at the concentrations of each as indicated. Samples were assessed for degree of platelet aggregation after 15 min exposure to histones by flow cytometry using the characteristic log FSC versus log SSC identification of platelets, with increases in the geometric mean of log FSC indicative of platelet aggregation.

[2] = test system: histone-mediated cytotoxicity for HMEC-1; experiment: Histone-mediated cytotoxicity assay (PI/Calcein-AM flow cytometry); assay type: cell-based
Method: Histone-mediated cytotoxicity assays. To determine the cytotoxicity of calf thymus histones (Sigma-Aldrich), various concentrations of histones (100-800 μg ml^−1) were added to suspensions of HMEC-1 or HUVEC (1×10^6 ml^−1) in 96 well plates and incubated for 1 h at 37° C. Cells were then incubated for 5 min at 37° C. with propidium iodide (PI; 2.5 μg ml^−1) (ThermoFisher Scientific), to detect dead cells, and Calcein-AM (0.04 μM) (ThermoFisher Scientific), to detect viable cells, placed on ice and the percentage of dead and viable cells determined by flow cytometry using gating strategies. In inhibition assays, HMEC-1 were incubated with histones (400 μg ml^−1) for 1 h at 37° C. in the presence of different concentrations of compounds (12.5-400 μg ml^−1) prior to the addition of PI and Calcein-AM. HMEC-1 cytotoxicity at each compound concentration was then determined based on the formula:
[formula] and the IC50 value for each polyanion then determined based on the line of best fit (nonlinear regression analysis) using Prism Software (Graphpad Software). In all assays MTS (IC50 30 μg ml^−1) was included as a standard to compensate for experimental variation, with data being adjusted in each assay to MTS having an IC50 of 30 μg ml^−1.

[3] = test system: histone-mediated RBC aggregation; experiment: Histone-mediated erythrocyte aggregation (flow cytometry, scanning EM); assay type: cell-based, human
Method: (§1) Human erythrocytes (RBC) were incubated for 1 h at 37° C. alone (‘Saline’ control) or in the presence of histones (400 μg ml^−1) with or without mCBS (200 μg ml^−1). a, Percentage of RBC aggregation measured by flow cytometry based on forward (FSC) and side (SSC) scatter parameters and an appropriate gating strategy to discriminate aggregated from normal (non-aggregated) RBC. b, Scanning electron micrographs depicting level of RBC aggregation at low and high magnification following the three treatments depicted in (a). c, Concentration dependent inhibition of histone-mediated RBC aggregation by mCBS and MTS, in this case RBC aggregation being calculated by flow cytometry as fold increase in RBC auto-fluorescence relative to RBC in the absence of histones. The fold increase values also provide an estimate of the number of RBC in each aggregate. d, Retention of RBC in an artificial spleen that measures RBC deformability. RBC were incubated with increasing concentrations of histones for 1 h and, at the highest concentration used (400 μg ml^−1), also incubated with either mCBS or MTS (100 and 200 μg ml^−1), prior to passage through the artificial spleen. Data are mean±s.e.m. (n=3 biological replicates). ***P<0.001, ****P<0.0001 (one way ANOVA with Dunnett's multiple comparisons test).
In vitro erythrocyte microscopy, aggregation, fragility and deformability assays. […] J Biol Chem 289, 19531-19537 (2014)). Similarly, erythrocyte fragility induced by histones, in the presence or absence of inhibitors, was quantified using a sheer stress assay that we developed recently (Kordbacheh, F., O'Meara, C. H., Coupland, L. A., Lelliott, P. M. & Parish, C. R. Extracellular histones induce erythrocyte fragility and anemia. Blood 130, 2884-2888 (2017)). Finally, the reduced deformability of erythrocytes in the presence of histones and the effect of inhibitors on this process was assessed by measuring the passage of erythrocytes through an artificial human spleen (Kordbacheh, F., O'Meara, C. H., Coupland, L. A., Lelliott, P. M. & Parish, C. R. Extracellular histones induce erythrocyte fragility and anemia. Blood 130, 2884-2888 (2017); and Deplaine, G. et al. The sensing of poorly deformable red blood cells by the human spleen can be mimicked in vitro. Blood 117, e88-95 (2011)).

[4] = test system: anti-proliferative effect of histones on HMEC-1; experiment: HMEC-1 proliferation (3H-thymidine) after histone exposure; assay type: cell-based, human; conditions: compounds 100 μg ml^−1, histones 400 μg ml^−1, FIG. 8b
[5] = test system: histone-induced erythrocyte rigidity; experiment: Erythrocyte deformability, passage through artificial spleen; assay type: cell-based, human; conditions: histones 400 μg ml^−1, compounds 100 and 200 μg ml^−1, FIG. 3d
Method: as §1, with “RBC were incubated with increasing concentrations of histones for 1 h and, at the highest concentration used (400 μg ml^−1), also incubated with either mCBS or MTS (100 and 200 μg ml^−1), prior to passage through the artificial spleen. Data are mean±s.e.m. (n=3 biological replicates). ***P<0.001, ****P<0.0001 (one way ANOVA with Dunnett's multiple comparisons test).” left out
In vitro erythrocyte microscopy, aggregation, fragility and deformability assays. […] Similarly, erythrocyte fragility induced by histones, in the presence or absence of inhibitors, was quantified using a sheer stress assay that we developed recently (Kordbacheh, F., O'Meara, C. H., Coupland, L. A., Lelliott, P. M. & Parish, C. R. Extracellular histones induce erythrocyte fragility and anemia. Blood 130, 2884-2888 (2017)). […]

[6] = Rat ischemia reperfusion tissue (skin) flap model; assay type: in vivo; conditions: rat skin flap IRI, 50 mg kg^−1 i.p., 72 h, FIG. 7d
Text: Rat ischemia reperfusion tissue flap model. The procedure employed is largely based on a previously described method (Bone, R. C. et al. Definitions for sepsis and organ failure and guidelines for the use of innovative therapies in sepsis. The ACCP/SCCM Consensus Conference Committee. American College of Chest Physicians/Society of Critical Care Medicine. Chest 101, 1644-1655 (1992)). Briefly, male Wistar rats were anaesthetized, locally depilated and a 3 cm by 6 cm fasciocutaneous flap was excised leaving the vascular pedicle intact. […] The clamp was removed 10 h post-application permitting returned blood flow to the flap. Test compounds (50 mg kg^−1) or saline were administered i.p. 5 min prior to clamp application and 5 min following its removal. The rats were monitored for a total experimental period of 72 h during which rats received additional compound or saline i.p. at 24 and 48 h post-op. The ‘Control No Clamp’ rats had the tissue flap excised and rubber placed underneath prior to re-suturing, however, the vessel was not clamped and they received saline at the same time points as the other rats. At the end of the experimental period the viability of the flaps was determined by the percentage of black necrotic or reddened areas versus pink viable areas. […]

OC[C@H]1O[C@@H](O[C@H]2[C@H](O)[C@@H](O)[C@H](O)O[C@@H]2CO)[C@H](O)[C@@H](O)[C@@H]1O [CB]
Protection from histone-induced liver damage, generalised tissue injury and kidney failure (circulating ALT, LDH, creatinine) (histones; FIG. 6a): inactive | Inhibition of histone-induced platelet aggregation [1]: non-inhibitory

O=S(=O)(O)OC[C@H]1OC(OS(=O)(=O)O)[C@H](OS(=O)(=O)O)[C@@H](OS(=O)(=O)O)[C@@H]1OS(=O)(=O)O (some centres unmarked) [glucose per-O-sulfate]
Inhibition of histone-mediated cytotoxicity for HMEC-1 (endothelial cells) [2]: little or no inhibitory activity

CO[C@@H]1O[C@H](COS(=O)(=O)O)[C@@H](OS(=O)(=O)O)[C@H](OS(=O)(=O)O)[C@H]1OS(=O)(=O)O [methyl β-glucoside per-O-sulfate]
Inhibition of histone-mediated cytotoxicity for HMEC-1 (endothelial cells) ([2]; compared with heparin, FIG. 2a): little or no inhibitory activity

β-O-methyl cellobioside sulfate [mCBS]
Inhibition of histone-mediated cytotoxicity for HMEC-1 (endothelial cells) ([2]; compared with heparin, FIG. 2a): as effective as heparin | Prevention of histone-mediated RBC aggregation (auto-fluorescence) ([3]; histones 400 μg ml^−1, FIG. 3c): prevented aggregation in a concentration dependent manner | Inhibition of histone-induced erythrocyte aggregation (FSC/SSC) ([3]; histones 400 μg ml^−1, mCBS 200 μg ml^−1, 1 h 37° C., FIG. 3a, confirmed by scanning EM): completely inhibited | Neutralization of anti-proliferative effect of histones on HMEC-1 monolayers [4]: completely neutralized | Ability of erythrocytes to passage through an artificial spleen [5]: totally restored | Viable area of the skin flap [6]: consistently and significantly increased | Histone-induced thrombocytopenia and anaemia (histones; 100 mg kg^−1 i.p., 10 min post-histones, FIG. 6b): prevented | Relative potency in protecting from histone-induced tissue pathologies (histones; FIG. 6a): equally active | Protection from histone-induced liver damage, generalised tissue injury and kidney failure (circulating ALT, LDH, creatinine) (histones; FIG. 6a): protected | Inhibition of histone-induced platelet aggregation [1]: completely inhibited
